In patent publication US9617602B2, “Methods and compositions for determining resistance to androgen receptor therapy” (Aragon Pharmaceuticals, Inc., priority 2012, dated 2017):

Key:
[1] = tested on: LNCaP/AR(cs) cells; experiment: Endogenous gene transcriptional assay (real-time PCR of androgen responsive genes); type: cell-based, human;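 for ORM1 expression, agonist transcription: LNCaP/AR(cs) cells without added R1881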;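 for PLD1 expression, agonist transcription: LNCaP/AR(cs) cells without added R1881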;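 for PSA expression, agonist transcription: LNCaP/AR(cs) cells without added R1881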;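 for SLUG expression, agonist transcription: LNCaP/AR(cs) cells without added R1881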;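 for TMPRSS2 expression, agonist transcription: LNCaP/AR(cs) cells without added R1881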
Procedure: (§1) Total RNA was isolated using the Aurum™ total RNA isolation kit (BIO-RAD, Hercules, Calif.). RNA (1 μg) was reverse transcribed using the iScript cDNA synthesis kit (BIO-RAD, Hercules, Calif.) to produce cDNA. Real-time PCR was performed using the Applied Biosystems 7900HT instrument and SYBR Green PCR Master Mix (Applied Biosystems, Foster City, Calif.). PCR reactions were performed in 6 μL according to the manufacturer's protocol and a thermocycle protocol of 95° C. for 10 minutes followed by 40 cycles of 95° C. for 15 seconds and 58° C. for 1 minute. Androgen responsive gene (PSA, SLUG, TMPRSS2, STEAP4, FKBP5, ORM1, NOV, FASN, NKX3.1, AMIGO2, BDNF, CAMK2N1, HPGD, NCAPD3, PLD1) expression was normalized to GAPDH expression and expressed relative to vehicle treatment of the parental cell line.
(§2) Gene expression was normalized to GAPDH as described above.

[2] = tested on: LNCaP ARN-509r1 cells; experiment: as above; type: cell-based, human; conditions: 1 nM R1881 or 30 μM compound, vehicle=1.00
Procedure: as §1, §2

[3] = Table 4A, 1 nM R1881 or 30 μM compound, vehicle=1.00

## CNC(=O)c1ccc(N2C(=S)N(c3cnc(C#N)c(C(F)(F)F)c3)C(=O)C23CCC3)cc1F [ARN-509]
[1]; [3]
  PSA gene expression: 1.43
  SLUG gene expression: 1.03
  STEAP4 gene expression: 0.90
  TMPRSS2 gene expression: 1.06
[1]; −R1881, 0.3 μM
  AMIGO2 expression, agonist transcription: 1.14
  BDNF expression, agonist transcription: 1.15
  CAM2KN1 expression, agonist transcription: 0.90
  FASN expression, agonist transcription: 0.46
  FKBP5 expression, agonist transcription: 0.99
  HPGD expression, agonist transcription: 0.81
  NCAPD3 expression, agonist transcription: 0.72
  NKX3.1 expression, agonist transcription: 1.11
  NOV expression, agonist transcription: 1.12
  ORM1 expression, agonist transcription: 1.37
  PLD1 expression, agonist transcription: 1.28
  PSA expression, agonist transcription: 0.44
  SLUG expression, agonist transcription: 0.38
  STEAP4 expression, agonist transcription: 0.94
  TMPRSS2 expression, agonist transcription: 0.99
[1]; −R1881, 1 μM
  AMIGO2 expression, agonist transcription: 0.69
  BDNF expression, agonist transcription: 0.93
  CAM2KN1 expression, agonist transcription: 0.76
  FASN expression, agonist transcription: 0.40
  FKBP5 expression, agonist transcription: 0.71
  HPGD expression, agonist transcription: 0.56
  NCAPD3 expression, agonist transcription: 0.74
  NKX3.1 expression, agonist transcription: 0.68
  NOV expression, agonist transcription: 1.00
  ORM1 expression, agonist transcription: 1.79
  PLD1 expression, agonist transcription: 0.66
  PSA expression, agonist transcription: 0.49
  SLUG expression, agonist transcription: 0.42
  STEAP4 expression, agonist transcription: 0.77
  TMPRSS2 expression, agonist transcription: 0.64
[1]; −R1881, 3 μM
  AMIGO2 expression, agonist transcription: 0.89
  BDNF expression, agonist transcription: 1.03
  CAM2KN1 expression, agonist transcription: 0.99
  FASN expression, agonist transcription: 0.42
  FKBP5 expression, agonist transcription: 0.91
  HPGD expression, agonist transcription: 0.78
  NCAPD3 expression, agonist transcription: 0.73
  NKX3.1 expression, agonist transcription: 0.73
  NOV expression, agonist transcription: 1.11
  ORM1 expression, agonist transcription: 1.20
  PLD1 expression, agonist transcription: 0.88
  PSA expression, agonist transcription: 0.58
  SLUG expression, agonist transcription: 0.52
  STEAP4 expression, agonist transcription: 1.05
  TMPRSS2 expression, agonist transcription: 1.04
[1]; −R1881, 10 μM
  AMIGO2 expression, agonist transcription: 0.65
  BDNF expression, agonist transcription: 1.03
  CAM2KN1 expression, agonist transcription: 0.78
  FASN expression, agonist transcription: 0.41
  FKBP5 expression, agonist transcription: 0.75
  HPGD expression, agonist transcription: 0.61
  NCAPD3 expression, agonist transcription: 0.74
  NKX3.1 expression, agonist transcription: 0.85
  NOV expression, agonist transcription: 0.98
  ORM1 expression, agonist transcription: 0.97
  PLD1 expression, agonist transcription: 0.65
  PSA expression, agonist transcription: 0.61
  SLUG expression, agonist transcription: 0.56
  STEAP4 expression, agonist transcription: 0.56
  TMPRSS2 expression, agonist transcription: 0.62
[1]; −R1881, 30 μM
  AMIGO2 expression, agonist transcription: 2.41
  BDNF expression, agonist transcription: 1.80
  CAM2KN1 expression, agonist transcription: 1.56
  FASN expression, agonist transcription: 1.30
  FKBP5 expression, agonist transcription: 1.87
  HPGD expression, agonist transcription: 1.86
  NCAPD3 expression, agonist transcription: 1.34
  NKX3.1 expression, agonist transcription: 2.24
  NOV expression, agonist transcription: 2.07
  ORM1 expression, agonist transcription: 1.35
  PLD1 expression, agonist transcription: 1.33
  PSA expression, agonist transcription: 1.13
  SLUG expression, agonist transcription: 1.36
  STEAP4 expression, agonist transcription: 1.01
  TMPRSS2 expression, agonist transcription: 2.78
[2]
  AMIGO2 gene expression: 0.62
  BDNF gene expression: 0.90
  CAM2KN1 gene expression: 0.37
  FASN gene expression: 1.04
  FKBP5 gene expression: 2.58
  HPGD gene expression: 2.36
  NCAPD3 gene expression: 1.29
  NKX3.1 gene expression: 6.54
  NOV gene expression: 1.40
  ORM1 gene expression: 15.89
  PLD1 gene expression: 0.33
  PSA gene expression: 32.67
  SLUG gene expression: 4.66
  STEAP4 gene expression: 3.03
  TMPRSS2 gene expression: 10.20
